Reference: US20220204479A1, “PYRIMIDINE COMPOUND AND PREPARATION METHOD THEREFOR” (Wuhan Humanwell Innovative Drug Research And Development …, priority 2019, published 2022)
In brackets after ≈: the same amount, converted by molar mass. Read-outs that look alike come from different tables or passages of the source.

Experiments:
[1] = target: T1, hERG channels (CHO cell line stably expressing hERG) (Homo sapiens, UniProt Q12809); test: cell-based
Method: (§4) Full-automatic electrophysiological patch clamp QPatch was used to detect the inhibitory effect of compounds on hERG. Cells used in this test were CHO cell line transfected with cDNA of hERG and stably expressing hERG channels (provided by Sophion Bioscience, Denmark), and the cell passage number was P24. The cells were cultured in a medium containing the following components (all purchased from Invitrogen): Ham's F12 medium, inactivated fetal bovine serum (10% (v/v)), hygromycin B (100 μg/ml), and Geneticin (100 μg/ml). CHO hERG cells were grown in a petri dish containing the above-mentioned medium and cultured in an incubator at 37° C. and containing 5% CO2.
(§5) The test compound was prepared into a 10 mM stock solution in DMSO solvent, the compound was diluted to 3 mM, 1 mM, 0.3 mM, and 0.1 mM with DMSO, and then the compound was diluted to 30 μM, 10 μM, 3 μM, 1 μM, 0.3 μM and 0.1 μM with the extracellular fluid, so that except that the final concentration of DMSO in the 30 μM compound was 0.3%, the final concentration of DMSO in compound solutions of all other concentrations was 0.10%.
(§6) The CHO hERG cells, after being digested and resuspended, were added to the full-automatic QPatch system (Sophion, Denmark), and subjected to a test according to the following preset procedure.
(§7) After reaching the ruptured whole cell configuration state in the initial stage, the whole cell current was recorded at room temperature (about 25° C.) for at least 120 seconds in order to achieve stability. The stable cells were selected for the test. During the whole test, the cells were clamped at a voltage of −80 mV, the cell clamp voltage was depolarized to +20 mV to activate the hERG potassium channels, and after 2.5 seconds, the cell clamp voltage was at −50 mV to eliminate inactivation and generate outward tail current. The peak tail current was used as the value of the hERG current. The voltage mode described above was applied to the cells for electrophysiological test every 15 seconds. An intracellular liquid containing 0.1% dimethyl sulfoxide (solvent) was added to the cells to establish a baseline, and then the current was allowed to stabilize for 3 min. After the compound solution was added, the cells were kept in the test environment until the effect of the compound reached a steady state or until reaching 4 min. In the test experiments with different concentration gradients of the compound, the compound was added from low to high concentration to the clamped cells. After the compound test was finished, the cells were washed with the extracellular fluid until the current returned to a stable state. The test data was analyzed by Qpatch analysis software provided by Sophion, Excel, and Graphpad Prism, etc.

[2] = Pharmacokinetic test in canines; format: in vivo; conditions: dog, plasma; male beagle dogs, oral gavage 5 mg/kg
Method: (§1) For the pharmacokinetic test of rats, 3 male SD rats (180-240 g) were used, and fasted overnight. The rats were orally administered by gavage (10 mg/kg). […] The blood samples were centrifuged at 8,000 rpm at 4° C. for 6 min, and plasma was collected and stored at −20° C. The plasma at each time point was taken and added with an acetonitrile solution containing internal standard in 3 to 5 times the amount, vortexed and mixed for 1 min, and centrifuged at 13,000 rpm at 4° C. for 10 min. The supernatant was collected, added with water in 3 times the amount, and mixed. An appropriate amount of the mixture was taken for LC-MS/MS analysis. The main pharmacokinetic parameters were analyzed using WinNonlin 7.0 software with non-compartmental model.
For the pharmacokinetics test of canines, 3 male beagle dogs (8 to 10 kg) were used, and fasted overnight. The dogs were orally administered by gavage (5 mg/kg). The rest of the operation is the same as the pharmacokinetic test in rats.

[3] = Pharmacokinetic test in mice; format: in vivo; conditions: mouse, plasma; male CD-1 mice, oral gavage 10 mg/kg
Method: as §1, with “mice,” for “rats, 3”, “CD-1 mice (20 g to 25” for “SD rats (180-240”, “mice” for “rats”

ATX enzyme in rat plasma = target: T2, ATX enzyme in rat plasma (Rattus norvegicus, UniProt Q64610); test: Inhibition of activity of ATX enzyme in rat plasma (LPA18:2 formation, LC-MSMS); format: biochemical; conditions: for inhibitory activity on ATX enzyme in rat plasma compared with control compounds 1 and 2: comparison in words
T2 construct: Whole blood was collected from rats and anticoagulated with heparin; from tissue; host or cells: rat plasma (heparin)
Method: Whole blood was collected from rats and anticoagulated with heparin. The blood collection tubes were centrifuged at 3,000 rpm for 15 min, and the plasma was placed on ice for use.
The compound was serially diluted with DMSO: 30% ACN=1:19 according to the conventional concentration requirements, and then placed on ice. 147 μL of plasma, which was placed on ice, was added to a 96-well plate, and then 3 μL of each of the gradient solutions of the compound (finally 1[…] DMSO) was added. A group containing none of the compounds was set as the positive group. The 96-well plate was mixed uniformly, and incubated at 37° C. for 3 h. In addition, a blank group was also provided. At the beginning of the incubation, the plasma of blank group was added to with excessive acetonitrile containing the internal standard LPA17: 0 to precipitate the plasma protein, vortexed to mix, and stored at 4° C. The blank group was provided to determine the baseline concentration of endogenous LPA.
A peak area of LPA18: 2 and a peak area of internal standard LPA17: 0 were detected using LC-MSMS mass spectrometry.
(§2) A ratio of the peak area of LPA18: 2 to the peak area of internal standard LPA17: 0 was calculated, and a formation inhibition rate of LPA18: 2 was calculated according to the following formula:
(§3) Inhibition rate (%)=100−(compound group with different concentrations−blank group)/(positive group−blank group)*100
According to the inhibition rates of different concentrations of the compound, the IC50 value of the compound for inhibiting activity of ATX enzyme in rat plasma, was calculated.

[4] = target: T3, ATX enzyme in human plasma (Homo sapiens, UniProt Q13822); test: Inhibition of activity of ATX enzyme in human plasma (LPA18:2 formation, LC-MSMS); format: biochemical; conditions: for inhibitory effect on ATX enzyme in human plasma compared with control compounds 1 and 2: comparison in words; for IC50: human plasma, 37° C., 3 h, LPA18:2 formation, read-out: IC50, inhibitory effect on activity of ATX enzyme in human plasma
T3 construct: Whole blood was collected from healthy volunteers and anticoagulated with heparin; from tissue; host or cells: human plasma (heparin) from healthy volunteers
Method: Whole blood was collected from healthy volunteers and anticoagulated with heparin. The blood collection tubes were centrifuged at 3,000 rpm for 10 min, and the plasma was taken and stored at −80° C. for use.
The compound was serially diluted with DMSO according to the conventional concentration requirements, then 3 μL of each of the diluted compound solutions was added to a 96-well plate, and 147 μL of PBS was added to each well containing 3 μL of the compound solution. After mixing homogenously, 50 μL of the mixture was taken out and added to a new 96-well plate. The human plasma was taken out from the −80° C. refrigerator and thawed through rapid shaking in a 37° C. water bath. 50 μL of the human plasma was taken and added to the 96-well plate containing 50 μL of the diluted compound (the final system contained 1% DMSO). The group without the compound was set as the positive group. The 96-well plate was shaken and mixed uniformly, and incubated at 37° C. for 3 h. A blank group was also provided, and the plasma of the blank group was stored at −80° C. The blank group is provided to determine the baseline concentration of endogenous LPA.
After the incubation was finished, the blank group was thawed on ice and transferred to an incubation plate. Excess acetonitrile containing the internal standard LPA17: 0 was added to the incubation plate to precipitate the plasma protein. After vortex centrifugation, the supernatant was taken and diluted, and a peak area of LPA18: 2 and a peak area of internal standard LPA17: 0 were detected using LC-MSMS mass spectrometry.
as §2, §3
According to the inhibition rates of different concentrations of the compound, the IC50 value of the compound for inhibiting activity of ATX enzyme in human plasma was calculated.

[5] = target: T1, hERG channels (CHO cell line stably expressing hERG); test: Inhibitory effect on hERG by full-automatic electrophysiological patch clamp QPatch; conditions: hERG IC50 (μM) divided by ATX enzyme IC50 (nM)
Method: as §4, §5, §6, §7

autotaxin (ATX) enzyme = target: T4, autotaxin (ATX) enzyme (Homo sapiens, UniProt Q13822); test: Autotaxin (ATX) enzyme activity inhibition test (Cayman Autotaxin Inhibitor Screening Assay Kit); format: biochemical; conditions: 37° C., 30 min, OD405, read-out: IC50, inhibitory effect on ATX enzyme activity
T4 construct: purchased Cayman 700580
Method: The inhibitory effects of the compounds on the autotaxin enzyme were detected using the Autotaxin Inhibitor Screening Assay Kit (Cayman, 700580). […] Subsequently, the 8 concentrations were diluted with Autotaxin Assay buffer (1×) provided in the kit into 19× compound working solutions (DMSO content was 1.9%). The Autotaxin Assay Reagent (10×) was taken out and diluted by 10 times with Autotaxin Assay Buffer (1×). The Autotaxin Substrate was taken out, dissolved by adding 1.2 mL of Autotaxin Assay Buffer (1×), mixed evenly and let stand by at room temperature. In a 96-well plate, 150 μL of Autotaxin Assay Buffer (1×), 10 μL of the prepared and diluted 19× compound working solution, 10 μL of Autotaxin Assay Reagent (1×), and 20 μL of the dissolved Autotaxin Substrate were added to each of the wells for each concentration, and homogenously mixed. The 96-well plate was shaken in a constant temperature shaker at 37° C. and incubated in the dark for 30 min, and then the plate was taken out and placed on a microplate reader to read OD405.

[6] = Pharmacokinetic test in rats; format: in vivo; conditions: male SD rats, oral gavage 10 mg/kg
Method: as §1

[7] = Human liver microsome stability test; conditions: for Remaining percentage (%) of compound after incubation for 30 min: NADPH, 37° C.; for half-life at 1 µM: human
Method: The human liver microsome stability test was performed by incubating the compound and human liver microsomes in vitro for detection. First, the test compound was prepared into a 10 mM stock solution in DMSO solvent, and then the compound was diluted to 0.5 mM with acetonitrile. Human liver microsomes (Corning) were diluted with PBS and prepared as a microsome/buffer solution, which was used to dilute the 0.5 mM compound solution into a working solution. […] A deep-well multi-well plate was taken, 30 μL of the working solution and 15 μL of pre-warmed NADPH solution (6 mM) were sequentially added to each well to initiate a reaction, and the reaction was incubated at 37° C. […] After centrifugation, the supernatant was collected, and added with purified water in a ratio of 1:1 to perform LC-MS/MS detection. […] T1/2 was calculated by using Excel.

[8] = Thermodynamic solubility test; format: physicochemical; conditions: thermodynamic from solid
Method: The compound was accurately weighed, and the prepared phosphate buffer (pH 7.4), FeSSIF solution (pH 5.8) and FaSSGF solution (pH 1.6) were added to prepare a solution with a concentration of 4 mg/mL, which was shaken at 1,000 rpm for 1 hour, and then incubated overnight at room temperature. After the incubation, the solution was centrifuged at 12,000 rpm for 10 min to remove undissolved particles, and the supernatant was transferred to a new centrifuge tube. The supernatant was diluted appropriately, then added with an acetonitrile solution containing the internal standard, and quantified using a standard curve prepared with the same matrix.

[9] = rat plasma, 37° C., 3 h, LPA18:2 formation, read-out: IC50, inhibitory effect on activity of ATX enzyme in rat plasma

T1 sequence (Q12809 whole entry): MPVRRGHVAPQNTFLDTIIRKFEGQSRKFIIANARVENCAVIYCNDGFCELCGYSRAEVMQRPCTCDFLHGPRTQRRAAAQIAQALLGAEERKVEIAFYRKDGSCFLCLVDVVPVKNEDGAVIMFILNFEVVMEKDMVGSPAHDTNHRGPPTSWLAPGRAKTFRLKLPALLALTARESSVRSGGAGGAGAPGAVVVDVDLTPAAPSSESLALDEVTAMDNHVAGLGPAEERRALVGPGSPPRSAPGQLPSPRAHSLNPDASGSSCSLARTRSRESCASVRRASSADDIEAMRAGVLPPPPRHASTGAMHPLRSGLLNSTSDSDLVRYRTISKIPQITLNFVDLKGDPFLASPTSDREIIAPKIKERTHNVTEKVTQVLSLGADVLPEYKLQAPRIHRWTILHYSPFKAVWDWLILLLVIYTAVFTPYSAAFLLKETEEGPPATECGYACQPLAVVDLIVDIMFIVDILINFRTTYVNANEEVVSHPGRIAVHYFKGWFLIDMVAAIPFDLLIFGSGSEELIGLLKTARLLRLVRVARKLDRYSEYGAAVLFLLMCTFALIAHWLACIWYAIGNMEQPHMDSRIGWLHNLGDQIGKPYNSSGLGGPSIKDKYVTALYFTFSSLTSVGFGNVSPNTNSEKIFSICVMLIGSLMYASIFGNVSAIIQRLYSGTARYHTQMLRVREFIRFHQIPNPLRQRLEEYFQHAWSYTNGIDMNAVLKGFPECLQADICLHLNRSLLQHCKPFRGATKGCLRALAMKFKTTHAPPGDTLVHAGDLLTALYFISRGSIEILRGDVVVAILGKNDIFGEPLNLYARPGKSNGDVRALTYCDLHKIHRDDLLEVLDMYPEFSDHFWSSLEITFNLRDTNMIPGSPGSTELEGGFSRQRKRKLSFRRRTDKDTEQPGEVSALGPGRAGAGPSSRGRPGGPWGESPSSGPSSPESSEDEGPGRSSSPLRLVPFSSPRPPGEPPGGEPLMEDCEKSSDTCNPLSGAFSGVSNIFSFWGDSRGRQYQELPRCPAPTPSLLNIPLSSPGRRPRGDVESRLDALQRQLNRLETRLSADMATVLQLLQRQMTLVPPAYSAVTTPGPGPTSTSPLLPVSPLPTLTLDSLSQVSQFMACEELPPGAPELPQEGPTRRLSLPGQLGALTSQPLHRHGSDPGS

Which results are given for `O=C(c1cnc(NC2Cc3ccccc3C2)nc1)N1CCC(COCc2cn[nH]n2)CC1` [Compound I-1, (4-(((2H-1,2,3-triazol-4-yl)methoxy)methyl)piperidin-1-yl)(2-((2,3-dihydro-1H-inden-2-yl)amino)pyrimidin-5-yl)methanone]?
IC50 [1]: 7930 nM; AUC(0-t) [2]: 17600 ng·h/mL; Cmax [2]: 3670 ng/mL; Tmax [2]: 70.2 min; AUC(0-t) [3]: 2390 ng·h/mL; Cmax [3]: 1860 ng/mL; Tmax [3]: 25.2 min; inhibitory activity on ATX enzyme in rat plasma compared with control compounds 1 and 2 (ATX enzyme in rat plasma): higher inhibitory activity on ATX enzyme in rat plasma than the control compounds 1 and 2; IC50 (ATX enzyme in rat plasma; [9]): 6.49 nM; inhibitory effect on ATX enzyme in human plasma compared with control compounds 1 and 2 [4]: higher inhibitory effect on ATX enzyme in human plasma than the control compounds 1 and 2; IC50 [4]: 8.73 nM; hERG IC50/ATX IC50 [5]: 7.93/2.05 = 3.87; IC50 (autotaxin (ATX) enzyme): 2.05 nM; Tmax ([6]; Sprague-Dawley, rat, plasma): 30 min; AUC(0-t) ([6]; Sprague-Dawley, rat, plasma, read-out: AUC0-t): 5720 ng·h/mL; Cmax ([6]; Sprague-Dawley, rat, plasma, read-out: Cmax): 3180 ng/mL; Remaining percentage (%) of compound after incubation for 30 min ([7]; human liver microsomes): 85.6%; half-life at 1 µM ([7]; human liver microsomes): 99 min

What does the source list for `O=C(c1cnc(NC2Cc3ccccc3C2)nc1)N1CC2(CC(OCc3c[nH]nn3)C2)C1` [Compound I-9, (6-((1H-1,2,3-triazol-4-yl)methoxy)-2-azaspiro[3.3]heptan-2-yl)(2-((2,3-dihydro-1H-inden-2-yl)amino)pyrimidin-5-yl)methanone]?
IC50 [1]: 13400 nM; AUC(0-t) [2]: 9410 ng·h/mL; Cmax [2]: 2090 ng/mL; Tmax [2]: 70.2 min; AUC(0-t) [3]: 4590 ng·h/mL; Cmax [3]: 3870 ng/mL; Tmax [3]: 19.8 min; inhibitory activity on ATX enzyme in rat plasma compared with control compounds 1 and 2 (ATX enzyme in rat plasma): higher inhibitory activity on ATX enzyme in rat plasma than the control compounds 1 and 2; IC50 (ATX enzyme in rat plasma; [9]): 2.83 nM; inhibitory effect on ATX enzyme in human plasma compared with control compounds 1 and 2 [4]: higher inhibitory effect on ATX enzyme in human plasma than the control compounds 1 and 2; IC50 [4]: 2.74 nM; hERG IC50/ATX IC50 [5]: 13.4/1.43 = 9.37; IC50 (autotaxin (ATX) enzyme): 1.43 nM; Tmax ([6]; Sprague-Dawley, rat, in vivo): 25.2 min; AUC(0-t) ([6]; Sprague-Dawley, rat, in vivo, read-out: AUC0-t): 1410 ng·h/mL; Cmax ([6]; Sprague-Dawley, rat, in vivo, read-out: Cmax): 973 ng/mL; Remaining percentage (%) of compound after incubation for 30 min ([7]; human liver microsomes): 95.5%; half-life at 1 µM ([7]; microsomes): 242 min

What does the source list for `O=C(COCCc1cnn[nH]1)N1Cc2cnc(NC3Cc4ccccc4C3)nc2C1` [Control compound 1, reference compound]?
IC50 [1]: 6690 nM; AUC(0-t) [2]: 10100 ng·h/mL; Cmax [2]: 2390 ng/mL; Tmax [2]: 60 min; solubility ([8]; FaSSGF solution, fassgf or other biorelevant, FaSSGF pH 1.6, overnight at room temperature, read-out: Solubility, FaSSGF (pH 1.6)): 66.5 µg/mL (≈ 164 µM); solubility ([8]; FeSSIF solution, FeSSIF pH 5.8, overnight at room temperature, read-out: Solubility, FeSSIF (pH 5.8)): 18.3 µg/mL (≈ 45.1 µM); solubility ([8]; phosphate buffer (PBS), aqueous buffer, PBS pH 7.4, overnight at room temperature, read-out: Solubility, PBS (pH 7.4)): 6.3 µg/mL (≈ 15.5 µM); AUC(0-t) [3]: 2570 ng·h/mL; Cmax [3]: 1500 ng/mL; Tmax [3]: 15 min; IC50 (ATX enzyme in rat plasma): 13.6 nM; Tmax ([6]; Sprague-Dawley, rat, plasma): 25.2 min; AUC(0-t) [6]: 4874 ng·h/mL; Cmax [6]: 2591 ng/mL; Remaining percentage (%) of compound after incubation for 30 min ([7]; human liver microsomes): 41.2%; half-life at 1 µM ([7]; microsomes): 24.1 min
